Tests used:
[1] = Stability in aqueous solution by 31P NMR; type: physicochemical
Description: Starting with the bottom spectrum in each panel, spectra were recorded at 24 hour time intervals.
At neutral pH, the isolated monomeric Pt(II) and Pl(IV) complexes of the present invention are stable. […] However, in the same time interval, slow deligation due to the release of the pyrophosphate ligand was evident at pH 4.2 by the appearance of the free pyrophosphate signal at −10.3 ppm. At the same time, an insoluble pyrophosphate-bridged dinuclear platinum(II) product was formed.

[2] = system: A2780 human ovarian cancer cells; test: Clonogenic assay, A2780; type: cell-based; conditions: 1 hour drug treatment, 1 week colony formation, read-out: IC50 A780
Description: (§1) Human ovarian cancer cells, A2780, were obtained from Dr. Thomas Hamilton (Fox Chase Cancer Center, Philadelphia, Pa.). Cells were cultured on monolayer using RPMI 1640 supplemented with 10% fetal bovine serum, 2 mM glutamine, 0.25 units/mL insulin and penicillin/streptomycin in a 37 degrees C. incubator continuously gassed with 5% CO2. Cells were subcultured using 0.0625% trypsin in HBSS to maintain cells in exponential growth.
(§2) IC50 values were determined using a clonogenic assay. Briefly, 500 A2780 cells from a single cell suspension were plated onto 60mm Petri plates 24 hours before drug treatment to permit cell attachment. On the day of drug treatment, the medium was decanted and replaced with the drug and these treated cells were placed back into the 37 degrees C. incubator for 1 hour. Triplicate plates were set up for each drug concentration. After the 1 hour drug treatment, the drug containing medium was decanted and replaced with fresh medium. These plates were returned to the 37 degrees C. incubator for 1 week for colony formation. Colonies were fixed and stained using 2% crystal violet in absolute methanol. Colonies containing more than 50 cells were scored. The number of scored colonies from the triplicate plates was averaged and this number was divided by the number of cells plated to obtain a value for the fraction of cells forming colonies. These values for fraction of cells forming colonies were then corrected for plating efficiency by dividing it by the number of cells forming colonies in plates that were not treated with drug.

[3] = system: A2780/C30 cisplatin-resistant ovarian cell line; test: Clonogenic assay, cisplatin/carboplatin-resistant C30; type: cell-based, human; conditions: 1 hour drug treatment, 1 week colony formation
Description: as §1, with “A cisplatin-resistant Ovarian cell line (C30) (Hamaguchi, et al., 1993),” for “Human ovarian cancer cells, A2780, were”, “Pa.), was treated with the monomeric platinum complexes of the present invention (shown in FIG. 2). This cell line is also cross resistant to carboplatin.” for “Pa.).”, “0.025%” for “0.0625%”
as §2, with “500 C30” for “500 A2780”, “onto 60 mm” for “onto 60mm”, “the one” for “the 1”, “dividing them” for “dividing it”

CHO cell line = test: Cytotoxic assay, CHO; type: cell-based
From the text: In some embodiments, the complexes of the present invention are useful for treating various cancers. […] The complexes of the present invention are particularly desirable because they may have reduced toxicity in vivo.

A2780/C30 cells [4] = test: Cellular accumulation of platinum by atomic absorption, A2780/C30; type: cell-based, human; conditions: 1 hr exposure
Description: Platinum content was quantitatively estimated on a Graphite Furnace Atomic Absorption Spectrometer (Perkin Elmer AA-600) from calibration curves established by using cisplatin or pyrodach-2 in water. Cells (5×10^6) were seeded in T75 cm^2 flasks. After 24 h, these cells were then treated with the different concentrations (0, 10, 20, 30 and 50 μM) of cisplatin and pyrodach-2. After 1 hr exposure with the platinum complexes, the drug-containing medium was removed and the cells were washed with ice-cold phosphate-buffered saline (PBS). The cells were then trypsinized and centrifuged into a pellet. Cell pellets were digested in concentrated HNO3 and H2O2 prior to analysis, according to the method of McGahan. Data reported in Table 4 were collected from three independent experiments each was carried out in duplicate. For the cisplatin accumulation, data were obtained from triplicate runs from a single sample at a given concentration.

DNA of A2780 cells = test: DNA-bound platinum in cells by atomic absorption; type: cell-based, human; conditions: up to 50 micromolar, treated up to 24 hours
Description: For DNA-Pt measurements, 1.0×10^7 cells were seeded in T75 cm^2 flasks. After 24 hr, the platinum complexes were added at the different concentrations 0, 10, 20, 30 and 50 μM. Cells were treated with the platinum complexes for 24 hours. Following treatment, the medium was removed and cells were washed with ice-cold PBS. The cells were trypsinized and centrifuged into a pellet. DNA was extracted using a Wizard® SV DNA purification kit (Promega). The DNA was quantitatively estimated from the absorption at 260 nm using a NanoDrop UV-Vis instrument.

TNFRSF-10B = test: Apoptotic gene array, real-time PCR: TNFRSF-10B; type: cell-based; conditions: preliminary
Description: (§3) Preliminary gene expression experiments involving complexes of the present invention as compared to cisplatin (data not shown) were carried out with an apoptotic array containing 84 genes that includes the BCL2 superfamily, both pro- and anti-apoptotic, caspases, the BIR-family, TNF receptor […] factors, p53 and its congeners, and fas associated members by real-time PCR. A closer look at the two sets of gene expressions clearly indicates a number of differences in the expression patterns. […] Specifically, fas was over-expressed by 6-fold compared to the control, and TNFRS genes such as TNFRSF-10B was overexpressed by 2-3 folds over controls. These latter receptor factors belong to the fas superfamily.

BAK1 = test: Apoptotic gene array, real-time PCR: BAK1; type: cell-based; conditions: preliminary
Description: as §3

A2780/C30 cells [5] = test: Cellular accumulation of platinum by atomic absorption, A2780/C30; type: cell-based, human; conditions: at its IC50 value

For `NC1CCCCC1N.O=P([O-])(O)OP(=O)([O-])O.[Pt+2]` [dach-2, (Trans-1,2-cyclohexanediamine)(dihydrogenpyrophosphato)platinum(II)], the “decomposition / deligation at pH 4.2” value ([1]; pH 4.2, six days) was “considerable decomposition”, the “decomposition at pH 8” value ([1]; pH 8, up to six days) was “no decomposition” and the IC50 [2] was 20 ± 4 µM. The IC50 [3] was 48 ± 5 µM, the IC50 (CHO cell line) was 35 ± 5 µM and the “Cellular accumulation of platinum” value (A2780/C30 cells [4]; A2780/C30, 10 μM) was 0.10 ± 0.08 ng/10^6 cells. For the same molecule, the “Cellular accumulation of platinum” value (A2780/C30 cells [4]; A2780/C30, 20 μM) was 1.00 ± 0.02 ng/10^6 cells, the “Cellular accumulation of platinum” value (A2780/C30 cells [4]; A2780/C30, 30 μM) was 1.00 ± 0.02 ng/10^6 cells and the “Cellular accumulation of platinum” value (A2780/C30 cells [4]; A2780/C30, 50 μM) was 2.00 ± 0.10 ng/10^6 cells. For the same molecule, the DNA-bound platinum (DNA of A2780 cells) was “No DNA-bound platinum was detected”, the “TNFRSF-10B overexpression over controls” value (TNFRSF-10B) was 2-3 folds and the BAK1 overexpression (BAK1) was 2-3 folds. For the same molecule, the “platinum accumulation in the resistant cell lines” value (A2780/C30 cells [5]) was 1.4 ng Pt/10^6 cells.

From US8653132B2, “Phosphaplatins and their use in pharmaceutical compositions” (Ohio University, priority 2007, dated 2014)
